Patent US20170363612A1, “COMPOSITIONS AND METHODS RELATING TO PROLIFERATIVE DISORDERS” (Wayne State University, priority 2014, published 2017)
Values joined by “and” are separate entries in the source; they are usually repeats but may differ in a detail not shown here. Equal values may be shown once. “Also recorded” adds a separate entry of the source. Read-outs that look alike come from different tables or passages of the source. Marks after values point to notes of the source that are not given here. Residues, ends and D or L forms follow the SMILES beside them. *: point of attachment. Cbz = O=C(OCc1ccccc1)*

Assays:
SET Ribosome [1] = assay: Rapamycin dose response and TPA+Taxol Modifier Assay, MCF7 TR Cell Panel
Protocol: To tease apart the growth and stress responses, cells were treated with varying doses of rapamycin, incubated at 37° C. for 6 hours, and assayed for fLuc activity.
In other studies, the effects of different rapamycin concentrations were measured in combination with the TPA+Taxol Reference Standard response in the MCF7 derived cell lines that express the fLuc reporter either constitutively (CMV lines) or as a part of the TR Expression Cassette (hTR and mTR lines). […] Cells were treated with 100 nM TPA, 500 nM paclitaxel, and varying concentrations of rapamycin, incubated at 37° C. for 6 hours, and assayed for fLuc activity.
Select members of the MCF7 TR Cell Panel were plated into 96-well microtiter plates and processed as described for a Cell Count Dose-dependent Modifier protocol. Rapamycin concentrations were tested for an ability to alter the Reference Standard responses produced by a 100 nM TPA/500 nM paclitaxel combination. Rapamycin was applied at doses ranging from 1 nM to 1 μM concentrations. All dilutions were prepared in complete growth media. Cells were incubated for 6 hrs, processed, and assayed for luciferase activity as described.

SET Ribosome [2] = test system: SET Ribosome
SET Ribosome [3] = assay: CremophorEL Cell Count Dose Response Assay, HEK293 TR cell lines; assay type: cell-based, human; details: HEK293 mTRdm-fLUC#12; 100 nM TPA
SET Ribosome [4] = assay: TR SET Assay (TPA Reference Standard) on HCT116 TR Cell Panel before and after nonadherent tumorsphere growth; assay type: cell-based, human; set-up: concentration or dose not given beside the values; details: for SET Activity (day 0): TPA Reference Standard; for SET Activity (post-growth): TPA, after 32 days tumorsphere growth and 14 days replating
[5] = test system: HCT116 hTRdm-fLUC#32 tumors; details: for Tumor Regression during Treatment, Average / Tumor Regression during Treatment, Mean: oral daily 18 days, Cape 500 mg/kg/day, anisomycin L 0.000027, H 0.000054 mg/kg/day
SET Ribosome [6] = assay: TPA Reference Standard Response Modifier Assay with ribosome binding translation inhibitors, HEK293 hTRdm-fLUC#13; assay type: cell-based, human; details: with 100 nM TPA; 6 hours
[7] = test system: HCT116 hTRdm-fLUC#32 tumors; details: for Tumor Regression during Treatment, Average / Tumor Regression during Treatment, Mean: oral daily 10 days, Cape 400 mg/kg/day
[8] = in vivo, cited from earlier work
SET Ribosome [9] = assay: Cobalt chloride Dose-dependent Modifier Assay, HEK293 mTRdm-fLUC#12; assay type: cell-based, human; details: 6 hours
[10] = test system: HCT116 hTRdm-fLUC#32 tumors; assay type: in vivo, nude mice; details: cremophorEL 0.5 mg/kg/day Q2Dx5; cyclophosphamide 120 mg/kg/day Q4Dx3; IV
SET Ribosome [11] = assay type: in vivo, nude mice; details: individual animals; for % Induction: post- vs pre-treatment
[12] = MCF7 TR Class 3/4 lines, 100 nM TPA + 500 nM paclitaxel, 6 hours
[13] = single listed concentration: dbcAMP 5 mM, TPA 100 nM, Paclitaxel 500 nM, MG132 50 uM, Colchicine 1 uM, MRA 150 nM, Bortezomib 50 nM

CO[C@H]1C[C@@H]2CC[C@@H](C)[C@@](O)(O2)C(=O)C(=O)N2CCCC[C@H]2C(=O)O[C@H]([C@H](C)C[C@@H]2CC[C@@H](O)[C@H](OC)C2)CC(=O)[C@H](C)/C=C(\C)[C@@H](O)[C@@H](OC)C(=O)[C@H](C)C[C@H](C)/C=C/C=C/C=C/1C [rapamycin]
concentrations giving SET decline in TPA+Taxol treated samples (SET Ribosome [1]; [12]): ≥ 100 nM | dose up to which SET of TPA+Taxol treated samples is super-induced (SET Ribosome [1]; [12]): ≤ 50 nM | dose giving a spike in fLuc activity (SET Ribosome [1]; MCF7 TR Class 3/4 lines, rapamycin alone, 6 hours): 50 nM | doses at which the magnitude of SET is reduced but not eliminated (SET Ribosome [1]; MCF7 cells, 6 hrs): > 50 nM

CC(=O)O[C@H]1C(=O)[C@@]2(C)[C@H]([C@H](OC(=O)c3ccccc3)[C@]3(O)C[C@H](OC(=O)[C@H](O)[C@@H](NC(=O)c4ccccc4)c4ccccc4)C(C)=C1C3(C)C)[C@]1(OC(C)=O)CO[C@@H]1C[C@@H]2O [Paclitaxel, 5β,20-epoxy-1,2α,4,7β,10β,13α-hexahydroxytax-1-1-en-9-14,10-diacetate 2-benzoate 13-ester with (2R,3S)-N-benzoyl-3-phenylisoserine]
SET Response (SET Ribosome [2]; [13]): Agonist

CCCCCCCCCCCCCC(=O)O[C@@H]1[C@@H](C)[C@@]2(O)[C@@H](C=C(CO)C[C@]3(O)C(=O)C(C)=C[C@@H]23)[C@@H]2C(C)(C)[C@]12OC(C)=O [TPA, 12-O-tetradecanoylphorbol-13-acetate]
SET increase (SET Ribosome [3]): > 2000% | SET Response (SET Ribosome [2]): Agonist | SET Activity (day 0) (SET Ribosome [4]; HCT116 mTRdm-fLUC#17): 226.3% | SET Activity (post-growth) (SET Ribosome [4]; HCT116 mTRdm-fLUC#17): 366.0% | SET Activity (day 0) (SET Ribosome [4]; HCT116 mTRdm-fLUC#25): 336.6% | SET Activity (post-growth) (SET Ribosome [4]; HCT116 mTRdm-fLUC#25): 26,675.6% | SET Activity (day 0) (SET Ribosome [4]; HCT116 mTRdm-fLUC#28): 1,365.5% | SET Activity (post-growth) (SET Ribosome [4]; HCT116 mTRdm-fLUC#28): 20,492.8% | SET Activity (day 0) (SET Ribosome [4]; HCT116 mTRdm-fLUC#36): 875.3% | SET Activity (post-growth) (SET Ribosome [4]; HCT116 mTRdm-fLUC#36): 3,926.9% | SET Activity (day 0) (SET Ribosome [4]; HCT116 mTRdm-fLUC#47): 237.5% | SET Activity (post-growth) (SET Ribosome [4]; HCT116 mTRdm-fLUC#47): 1,434.3% | SET Activity (day 0) (SET Ribosome [4]; HCT116 mTRdm-fLUC#49): 329.4% | SET Activity (post-growth) (SET Ribosome [4]; HCT116 mTRdm-fLUC#49): 2,015.4% | SET Activity (day 0) (SET Ribosome [4]; HCT116 mTRdm-fLUC#52): 261.1% | SET Activity (post-growth) (SET Ribosome [4]; HCT116 mTRdm-fLUC#52): 920.0% | SET Activity (day 0) (SET Ribosome [4]; HCT116 mTRdm-fLUC#58): 324.4% | SET Activity (post-growth) (SET Ribosome [4]; HCT116 mTRdm-fLUC#58): 636.6% | SET Activity (day 0) (SET Ribosome [4]; HCT116 mTRdm-fLUC#75): 693.1% | SET Activity (post-growth) (SET Ribosome [4]; HCT116 mTRdm-fLUC#75): 19,413.0% | SET Activity (day 0) (SET Ribosome [4]; HCT116 mTRdm-fLUC#139): 114.8% | SET Activity (post-growth) (SET Ribosome [4]; HCT116 mTRdm-fLUC#139): 311.9% | SET Activity (day 0) (SET Ribosome [4]; HCT116 mTRdm-fLUC#156): 462.3% | SET Activity (post-growth) (SET Ribosome [4]; HCT116 mTRdm-fLUC#156): 3,673.3% | SET Activity (day 0) (SET Ribosome [4]; HCT116 mTRdm-fLUC#190): 204.4% | SET Activity (post-growth) (SET Ribosome [4]; HCT116 mTRdm-fLUC#190): 178.3% | SET Activity (day 0) (SET Ribosome [4]; HCT116 mTRdm-fLUC#220): 115.5% | SET Activity (post-growth) (SET Ribosome [4]; HCT116 mTRdm-fLUC#220): 81.8%

polyoxyl 35 castor oil [cremophorEL]
Animal weight averages, day 7 ([5]; mouse, in vivo): 22.25 g | Animal weight averages, day 10 ([5]; mouse, in vivo): 22.39 g | Animal weight averages, day 13 ([5]; mouse, in vivo): 22.23 g | Animal weight averages, day 15 ([5]; mouse, in vivo): 21.60 g | Animal weight averages, day 18 ([5]; mouse, in vivo): 21.93 g | Animal weight averages, day 24 ([5]; mouse, in vivo): 21.59 g | Animal weight averages, day 31 ([5]; mouse, in vivo): 20.22 g

C[C@@H]1C[C@@H]([C@H](O)CC2CC(=O)NC(=O)C2)C(=O)[C@@H](C)C1 [cycloheximide]
IC100 (100% SET Ribosome inhibition) (SET Ribosome [6]): > 10 µM

CC(C)C[C@H](NC(=O)[C@H](Cc1ccccc1)NC(=O)c1cnccn1)B(O)O [Bortezomib (Velcade), [(1R)-3-methyl-1-[[(2S)-1-oxo-3-phenyl-2-[(pyrazinylcarbonyl)amino]propyl]amino]butyl] boronic acid]
SET Response (SET Ribosome [2]; [13]): Antagonist/; also recorded: Agonist

COc1cc2c(c(OC)c1OC)-c1ccc(OC)c(=O)cc1[C@@H](NC(C)=O)CC2 [Colchicine, N-[(7S)-1,2,3,10-tetramethoxy-9-oxo-5,6,7,9-tetrahydrobenzo[a]heptalen-7-yl]acetamide]
SET Response (SET Ribosome [2]): Agonist

CCCCCOC(=O)Nc1nc(=O)n([C@@H]2O[C@H](C)[C@@H](O)[C@H]2O)cc1F [capecitabine, pentyl [1-(3,4-dihydroxy-5-methyltetrahydrifuran-2-yl)-5-fluoro-2-oxo-1H-pyrimidine-4-yl]carbamate]
survival mean ([7]; Example 3 text on FIG. 16): 47 days | sacrifice mean ([7]; Kaplan-Meier, FIG. 16 description): 47 days | Tumor Regression during Treatment, Average [7]: 35.2% | Tumor Regression during Treatment, Mean [7]: 35.2% | Tumor Regression during Treatment, Average ([7]; listed as Cape): 29.4% | Tumor Regression during Treatment, Mean ([7]; listed as Cape): 35.2% | time of maximal metabolite concentration in the plasma ([8]; iv): 2 to 3 h | Animal weight averages, day 7 ([5]; mouse, in vivo): 20.88 g | Animal weight averages, day 10 ([5]; mouse, in vivo): 20.88 g | Animal weight averages, day 13 ([5]; mouse, in vivo): 20.36 g | Animal weight averages, day 15 ([5]; mouse, in vivo): 19.38 g | Animal weight averages, day 18 ([5]; mouse, in vivo): 18.50 g | Animal weight averages, day 24 ([5]; mouse, in vivo): 19.56 g | Animal weight averages, day 31 ([5]; mouse, in vivo): 21.17 g | Animal weight averages, day 35 ([5]; mouse, in vivo): 22.32 g | Animal weight averages, day 38 ([5]; mouse, in vivo): 22.99 g | spontaneous death ([5]; mouse, in vivo): one | survival mean ([5]; mouse, in vivo): 24 days | Tumor Regression during Treatment, Average [5]: 53.2% | Tumor Regression during Treatment, Mean [5]: 56% | Tumor Regression during Treatment, Average ([5]; listed as Cape): 53.2% | Tumor Regression during Treatment, Mean ([5]; listed as Cape): 56.0%

[Cl-].[Cl-].[Co+2] [cobalt(II) chloride]
doses repressing background SET Ribosome activity (SET Ribosome [9]; cobalt applied alone): > 50 µM | doses inhibiting TPA SET activation (SET Ribosome [9]; with 100 nM TPA): > 200 µM | doses inhibiting TPA SET activation (SET Ribosome [9]; with 100 nM TPA, listed as CoCl2): ≥ 200 µM | IC50 (SET Ribosome [9]; with 100 nM TPA, read-out: IC50, inhibition of SET activity in cells treated with TPA): ~1000 µM | doses inhibiting SET Ribosome activation by paclitaxel (Taxol) (SET Ribosome [9]; with paclitaxel Reference Standard): > 50 µM | doses inhibiting SET Ribosome activation by paclitaxel (Taxol) (SET Ribosome [9]; with paclitaxel Reference Standard, listed as CoCl2): ≥ 50 µM | IC50 (SET Ribosome [9]; with paclitaxel Reference Standard, read-out: IC50, inhibition of SET Ribosome activation by paclitaxel): ~200 µM

CC(C)C[C@@H](C=O)NC(=O)[C@H](CC(C)C)NC(=O)[C@H](CC(C)C)NC(=O)OCc1ccccc1 [MG132, Z-Leu-Leu-Leu-aldehyde] (Cbz-Leu-Leu-Leu-aldehyde)
SET Response (SET Ribosome [2]): Antagonist/; also recorded: Agonist

CNc1ccc2oc(C[C@H]3O[C@@]4(CC[C@H]3C)O[C@H]([C@H](C)C(=O)c3ccc[nH]3)[C@H](C)C[C@H]4C)nc2c1C(=O)O [Calon, Calcimycin]
SET Response (SET Ribosome [2]): Antagonist; also recorded: Agonist

O=P1(N(CCCl)CCCl)NCCCO1 (centres unmarked) [Cyclophosphamide, RS-N,N-bis(2-chloroethyl)-1,3,2-oxazaphosphinan-2-amine 2-oxide]
elimination half-life ([8]; po): 3 to 12 h | oral bioavailability ([8]; po): > 75% | dose excreted in the urine as unchanged drug [8]: 5-25% | effect on tumor growth [10]: slowed tumor growth | 6 hr Post-treatment Value (bioluminescence signal intensity) (SET Ribosome [11]; IV, CremophorEL 0.5 mg/kg, paclitaxel 20 mg/kg, cyclophosphamide 120 mg/kg, average tumor size 125 mg): 38.6 ×10e6 photons and 50.4 ×10e6 photons and 101.0 ×10e6 photons and 39.3 ×10e6 photons and 82.5 ×10e6 photons and 56.8 ×10e6 photons | 6 hr Post-treatment Value (bioluminescence signal intensity) (SET Ribosome [11]; average tumor size 500 mg): 75.0 ×10e6 photons and 81.5 ×10e6 photons and 48.8 ×10e6 photons | % Induction (SET Ribosome [11]; average tumor size 125 mg): 12,866.7% *** and 381.8% and 167.2% and 13,100.0% *** and 373.3% and 18,933.3% *** | % Induction (SET Ribosome [11]; average tumor size 500 mg): 204.9% and 368.8% and 109.7%

COc1ccc(C[C@H](N)C(=O)N[C@H]2[C@@H](O)[C@H](n3cnc4c(N(C)C)ncnc43)O[C@@H]2CO)cc1 [puromycin]
IC100 (100% SET Ribosome inhibition) (SET Ribosome [6]): > 25 µM
